How the values were obtained:
Test in all cases: relative viability (nuclei count vs DMSO), 5 days (fraction); higher = more cells survive
CAL-12T = system: CAL-12T
In short: (§1)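 Relative viability is defined as nuclei in treated wells over nuclei in vehicle wells. Duplicate plates were run and medians reported. Lung cancer cell lines in 1536-well plates were dosed by pin tool one day after seeding, with one drug or with a fixed anchor-drug dose plus five library-drug doses (not always all listed) in √10 steps, and nuclei were counted after 5 days.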

NCI-H1666 = system: NCI-H1666
In short: as §1

NCI-H1975 = system: NCI-H1975
In short: as §1

NCI-H1755 = system: NCI-H1755
In short: as §1

UMC-11 = system: UMC-11
In short: as §1

ChaGo-K-1 = system: ChaGo-K-1
In short: as §1

HCC-15 = system: HCC-15
In short: as §1

COR-L 105 = system: COR-L 105
In short: as §1

NCI-H2126 = system: NCI-H2126
In short: as §1

NCI-H3122 = system: NCI-H3122
In short: as §1

NCI-H322M = system: NCI-H322M
In short: as §1

NCI-H441 = system: NCI-H441
In short: as §1

HCC-78 = system: HCC-78
In short: as §1

NCI-H2023 = system: NCI-H2023
In short: as §1

EPLC-272H = system: EPLC-272H
In short: as §1

HOP-62 = system: HOP-62
In short: as §1

LXF-289 = system: LXF-289
In short: as §1

NCI-H1915 = system: NCI-H1915
In short: as §1

EMC-BAC-2 = system: EMC-BAC-2
In short: as §1

NCI-H2085 = system: NCI-H2085
In short: as §1

In the case of `Nc1ccn([C@@H]2O[C@H](CO)[C@@H](O)[C@@H]2O)c(=O)n1` [Cytarabine] + CC1(C)CCC(c2ccc(Cl)cc2)=C(CN2CCN(c3ccc(C(=O)NS(=O)(=O)c4ccc(N[C@H](CCN5CCOCC5)CSc5ccccc5)c(S(=O)(=O)C(F)(F)F)c4)cc3)CC2)C1 [Navitoclax] (partner 0.5 µM), the relative viability (CAL-12T; first compound 0.005 µM) was 1.24, the relative viability (CAL-12T; first compound 0.01581 µM) was 1.4 and the relative viability (CAL-12T; first compound 0.05 µM) was 1.13. It also gave a relative viability (CAL-12T; first compound 0.1581 µM) of 0.598, a relative viability (CAL-12T; first compound 0.5 µM) of 0.244 and a relative viability (NCI-H1666; first compound 0.005 µM) of 0.755. The relative viability (NCI-H1666; first compound 0.01581 µM) was 0.796, the relative viability (NCI-H1666; first compound 0.05 µM) was 0.718 and the relative viability (NCI-H1666; first compound 0.1581 µM) was 0.41. The relative viability (NCI-H1666; first compound 0.5 µM) was 0.355, the relative viability (NCI-H1975; first compound 0.005 µM) was 0.944 and the relative viability (NCI-H1975; first compound 0.01581 µM) was 1.26. The relative viability (NCI-H1975; first compound 0.05 µM) was 1.1, the relative viability (NCI-H1975; first compound 0.1581 µM) was 0.567 and the relative viability (NCI-H1975; first compound 0.5 µM) was 0.359. For the same compound, the relative viability (NCI-H1755; first compound 0.005 µM) was 0.914, the relative viability (NCI-H1755; first compound 0.01581 µM) was 0.821 and the relative viability (NCI-H1755; first compound 0.05 µM) was 0.583. It also gave a relative viability (NCI-H1755; first compound 0.1581 µM) of 0.201, a relative viability (NCI-H1755; first compound 0.5 µM) of 0.194 and a relative viability (UMC-11; first compound 0.005 µM) of 0.268. It also gave a relative viability (UMC-11; first compound 0.01581 µM) of 0.197, a relative viability (UMC-11; first compound 0.05 µM) of 0.2 and a relative viability (UMC-11; first compound 0.1581 µM) of 0.141. For the same compound, the relative viability (UMC-11; first compound 0.5 µM) was 0.125, the relative viability (ChaGo-K-1; first compound 0.005 µM) was 0.74 and the relative viability (ChaGo-K-1; first compound 0.01581 µM) was 0.505. It also gave a relative viability (ChaGo-K-1; first compound 0.05 µM) of 0.453, a relative viability (ChaGo-K-1; first compound 0.1581 µM) of 0.364 and a relative viability (ChaGo-K-1; first compound 0.5 µM) of 0.37. It also gave a relative viability (HCC-15; first compound 0.005 µM) of 0.669, a relative viability (HCC-15; first compound 0.01581 µM) of 0.733 and a relative viability (HCC-15; first compound 0.05 µM) of 0.609. The relative viability (HCC-15; first compound 0.1581 µM) was 0.562, the relative viability (HCC-15; first compound 0.5 µM) was 0.43 and the relative viability (COR-L 105; first compound 0.005 µM) was 0.699. For the same compound, the relative viability (COR-L 105; first compound 0.01581 µM) was 0.795, the relative viability (COR-L 105; first compound 0.05 µM) was 0.588 and the relative viability (COR-L 105; first compound 0.1581 µM) was 0.435. It also gave a relative viability (COR-L 105; first compound 0.5 µM) of 0.34, a relative viability (NCI-H2126; first compound 0.005 µM) of 0.866 and a relative viability (NCI-H2126; first compound 0.01581 µM) of 0.705. The relative viability (NCI-H2126; first compound 0.05 µM) was 0.679, the relative viability (NCI-H2126; first compound 0.1581 µM) was 0.53 and the relative viability (NCI-H2126; first compound 0.5 µM) was 0.454. For the same compound, the relative viability (NCI-H3122; first compound 0.005 µM) was 0.968, the relative viability (NCI-H3122; first compound 0.01581 µM) was 0.877 and the relative viability (NCI-H3122; first compound 0.05 µM) was 0.876. It also gave a relative viability (NCI-H3122; first compound 0.1581 µM) of 0.682, a relative viability (NCI-H3122; first compound 0.5 µM) of 0.457 and a relative viability (NCI-H322M; first compound 0.005 µM) of 0.846. For the same compound, the relative viability (NCI-H322M; first compound 0.01581 µM) was 0.787, the relative viability (NCI-H322M; first compound 0.05 µM) was 0.561 and the relative viability (NCI-H322M; first compound 0.1581 µM) was 0.46. The relative viability (NCI-H322M; first compound 0.5 µM) was 0.366, the relative viability (NCI-H441; first compound 0.005 µM) was 0.547 and the relative viability (NCI-H441; first compound 0.01581 µM) was 0.648. The relative viability (NCI-H441; first compound 0.05 µM) was 0.556, the relative viability (NCI-H441; first compound 0.1581 µM) was 0.176 and the relative viability (NCI-H441; first compound 0.5 µM) was 0.161. It also gave a relative viability (HCC-78; first compound 0.005 µM) of 0.879, a relative viability (HCC-78; first compound 0.01581 µM) of 0.652 and a relative viability (HCC-78; first compound 0.05 µM) of 0.684. For the same compound, the relative viability (HCC-78; first compound 0.1581 µM) was 0.364, the relative viability (HCC-78; first compound 0.5 µM) was 0.219 and the relative viability (NCI-H2023; first compound 0.005 µM) was 0.549. The relative viability (NCI-H2023; first compound 0.01581 µM) was 0.356, the relative viability (NCI-H2023; first compound 0.05 µM) was 0.195 and the relative viability (NCI-H2023; first compound 0.1581 µM) was 0.108. The relative viability (NCI-H2023; first compound 0.5 µM) was 0.103, the relative viability (EPLC-272H; first compound 0.005 µM) was 1.01 and the relative viability (EPLC-272H; first compound 0.01581 µM) was 0.849. For the same compound, the relative viability (EPLC-272H; first compound 0.05 µM) was 0.842, the relative viability (EPLC-272H; first compound 0.1581 µM) was 0.33 and the relative viability (EPLC-272H; first compound 0.5 µM) was 0.247. The relative viability (HOP-62; first compound 0.005 µM) was 0.946, the relative viability (HOP-62; first compound 0.01581 µM) was 0.405 and the relative viability (HOP-62; first compound 0.05 µM) was 0.342. The relative viability (HOP-62; first compound 0.1581 µM) was 0.104, the relative viability (HOP-62; first compound 0.5 µM) was 0.0809 and the relative viability (LXF-289; first compound 0.005 µM) was 0.805. For the same compound, the relative viability (LXF-289; first compound 0.01581 µM) was 0.944, the relative viability (LXF-289; first compound 0.05 µM) was 0.564 and the relative viability (LXF-289; first compound 0.1581 µM) was 0.395. The relative viability (LXF-289; first compound 0.5 µM) was 0.253, the relative viability (NCI-H1915; first compound 0.005 µM) was 0.799 and the relative viability (NCI-H1915; first compound 0.01581 µM) was 0.719. The relative viability (NCI-H1915; first compound 0.05 µM) was 0.714, the relative viability (NCI-H1915; first compound 0.1581 µM) was 0.411 and the relative viability (NCI-H1915; first compound 0.5 µM) was 0.386. For the same compound, the relative viability (EMC-BAC-2; first compound 0.005 µM) was 0.843, the relative viability (EMC-BAC-2; first compound 0.01581 µM) was 0.987 and the relative viability (EMC-BAC-2; first compound 0.05 µM) was 0.789. It also gave a relative viability (EMC-BAC-2; first compound 0.1581 µM) of 0.243, a relative viability (EMC-BAC-2; first compound 0.5 µM) of 0.19 and a relative viability (NCI-H2085; first compound 0.005 µM) of 1.15. It also gave a relative viability (NCI-H2085; first compound 0.01581 µM) of 1.08, a relative viability (NCI-H2085; first compound 0.05 µM) of 1.02 and a relative viability (NCI-H2085; first compound 0.1581 µM) of 0.731. It also gave a relative viability (NCI-H2085; first compound 0.5 µM) of 0.728.
